Measurements as given in patent US8575119B2, “2′-chloroacetylenyl substituted nucleoside derivatives” (Enanta Pharmaceuticals, Inc., priority 2011, dated 2013).
pEC50: −log10 of the molar value.

Experiments:
HCV 1a genotype replicon = test: HCV replicon assay, qRT-PCR, genotype 1a (Huh-1a7 replicon cell line); assay type: cell-based, HCV (strain H77; conditions: Hepatitis C virus; Genotype-1a replicon, HCV RNA by qRT-PCR normalized to GAPDH RNA
Excerpt: (§1) HCV replicon cell lines (kindly provided by R. Bartenschlager) isolated from colonies as described by Lohman et al. (Lohman et al. (1999) Science 285: 110-113, expressly incorporated by reference in its entirety) and used for all experiments. One of the HCV replicon cell lines (strain Conl, genotype 1b) has the nucleic acid sequence set forth in EMBL Accession No.: AJ242651, the coding sequence of which is from nucleotides 1801 to 8406. Another replicon cell line (strain H77, genotype 1a) was constructed as described by Yi et. al. (Yi et. al. (2004) Journal of Virology 78(15):7904-15). The coding sequences of the published HCV replicons were synthesized and subsequently assembled in plasmids using standard molecular biology techniques.
(§2) One replicon cell line (“SGR 11-7”) stably expresses HCV replicon RNA, genotype 1b, which consists of (i) the HCV 5′UTR fused to the first 12 amino acids of the capsid protein, (ii) the neomycin phosphotransferase gene (neo), (iii) the IRES from encephalomyocarditis virus (EMCV) and (iv) HCV […] to NS5B genes and the HCV 3′UTR. Another replicon cell line (“Huh-1a7”) described by Yi et. al. (Yi et. al. (2004) Journal of Virology 78(15):7904-15, expressly incorporated by reference in its entirety) stably expresses HCV replicon RNA, genotype 1a, which consists of (i) the HCV 5′UTR fused to the first 12 amino acids of the capsid protein, (ii) the HIV tat protein, (iii) the neomycin phosphotransferase gene (neo), (iv) the IRES from encephalomyocarditis virus (EMCV) and (vi) HCV NS3 to NS5B genes that harbor cell culture adaptive mutations (Q1067R, K1691R, S2204I) and the HCV 3′UTR.
(§3) These cell lines are maintained at 37° C., 5% CO2, 100% relative humidity in DMEM (Cat#11965-084, Invitrogen), with 10% fetal calf serum (“FCS”, Invitrogen), 1% non-essential amino acids (Invitrogen), 1% of Glutamax (Invitrogen), 1% of 100× penicillin/streptomycin (Cat#15140-122, Invitrogen) and Geneticin (Cat#10131-027, Invitrogen) at 0.75 mg/ml or 0.25 mg/ml for 11-7 and Huh-1a7 cells, respectively.
(§4) EC50 values of single agent compounds were determined by HCV RNA detection using quantitative RT-PCR, according to the manufacturer's instructions, with a TAQMAN® One-Step RT-PCR Master Mix Reagents Kit (Cat#AB 4309169, Applied Biosystems) on an ABI Model 7500 thermocycler. EC50 values of combinations are similarly determined by HCV RNA detection using quantitative RT-PCR. The TAQMAN primers to use for detecting and quantifying HCV RNA obtained from Integrated DNA Technologies. HCV RNA is normalized to GAPDH RNA levels in drug-treated cells, which is detected and quantified using the Human GAPDH Endogenous Control Mix (Applied Biosystems, AB 4310884E). Total cellular RNA is purified from 96-well plates using the RNAqueous 96 kit (Ambion, Cat#AM1812). Chemical agent cytotoxicity is evaluated using an MTS assay according to the manufacturer's directions (Promega).
(§5) The compounds of the present invention can be effective against the HCV 1a and 1b genotypes. It should also be understood that the compounds of the present invention can inhibit multiple genotypes of HCV. In one embodiment, compounds of the present invention are active against the 1a, 1b, 2a, 2b, 3a, 4a, and 5a genotypes. […] EC50 ranges against HCV 1a or 1b are as follows: A>1 μM; B 0.1-1 μM; C<0.1 μM.

HCV 1b genotype replicon = test: HCV replicon assay, qRT-PCR, genotype 1b (SGR 11-7 replicon cell line); assay type: cell-based, HCV (strain Conl; conditions: Hepatitis C virus; Genotype-1b replicon, HCV RNA by qRT-PCR normalized to GAPDH RNA
Excerpt: as §1, §2, §3, §4, §5

Compound | pEC50 (HCV 1a genotype replicon) | pEC50 (HCV 1b genotype replicon)
COC(=O)[C@H](C)NP(=O)(OC[C@H]1O[C@@H](n2ccc(=O)[nH]c2=O)[C@@](O)(C#CCl)C1O)Oc1cccc2ccccc12 (some centres unmarked) [Example 2] | 6.00 to 7.00 | 6.00 to 7.00
C[C@H](NP(=O)(OC[C@H]1O[C@@H](n2ccc(=O)[nH]c2=O)[C@@](O)(C#CCl)C1O)Oc1cccc2ccccc12)C(=O)OC1CCCC1 (some centres unmarked) [Example 9] | 6.00 to 7.00 | 6.00 to 7.00
CCCCOC(=O)[C@H](C)NP(=O)(OC[C@H]1O[C@@H](n2ccc(=O)[nH]c2=O)[C@@](O)(C#CCl)C1O)Oc1cccc2ccccc12 (some centres unmarked) [Example 5] | 6.00 to 7.00 | 6.00 to 7.00
C[C@H](NP(=O)(OC[C@H]1O[C@@H](n2ccc(=O)[nH]c2=O)[C@@](O)(C#CCl)C1O)Oc1cccc2ccccc12)C(=O)OCc1ccccc1 (some centres unmarked) [Example 6] | 6.00 to 7.00 | 6.00 to 7.00
CCCCCOC(=O)[C@H](C)NP(=O)(OC[C@H]1O[C@@H](n2ccc(=O)[nH]c2=O)[C@@](O)(C#CCl)C1O)Oc1cccc2ccccc12 (some centres unmarked) [Example 7] | 6.00 to 7.00 | 6.00 to 7.00
O=c1ccn([C@@H]2O[C@H](CO)C(O)C2(O)C#CCl)c(=O)[nH]1 (some centres unmarked) [Example 1] | < 6.00 | < 6.00
C[C@H](N[P@@](=O)(OC[C@H]1O[C@@H](n2ccc(=O)[nH]c2=O)[C@@](O)(C#CCl)C1O)Oc1cccc2ccccc12)C(=O)OCC(C)(C)C (some centres unmarked) [Example 3] | 6.00 to 7.00 | 6.00 to 7.00
C[C@H](N[P@](=O)(OC[C@H]1O[C@@H](n2ccc(=O)[nH]c2=O)[C@@](O)(C#CCl)C1O)Oc1cccc2ccccc12)C(=O)OCC(C)(C)C (some centres unmarked) [Example 4] | > 7.00 | > 7.00
C[C@H](NP(=O)(OC[C@H]1O[C@@H](n2ccc(=O)[nH]c2=O)C(O)(C#CCl)C1O)Oc1cccc2ccccc12)C(=O)OC1CCCCC1 (some centres unmarked) [Example 10] | < 6.00 | < 6.00
CC(C)OC(=O)[C@H](C)NP(=O)(OC[C@H]1O[C@@H](n2ccc(=O)[nH]c2=O)[C@@](O)(C#CCl)C1O)Oc1cccc2ccccc12 (some centres unmarked) [Example 8] | 6.00 to 7.00 | < 6.00
